Measured values published in ChEMBL document CHEMBL4622958, “Tetrazoles as anticancer agents: A review on synthetic strategies, mechanism of action and SAR studies” (Bioorg Med Chem, 2020).
Converted amounts (≈) assume the structure as drawn. Counter-ions that a name gives are not always drawn. One block for each compound: values may come before it.

Key:
HOP-62 = test: Growth inhibition of human HOP62 cells after 48 hrs by MTT assay; type: functional; settings: HOP-62, 48 h
MCF7 [1] = test: Cytotoxicity against human MCF7 cells assessed as reduction in cell viability after 48 hrs by MTT assay; type: functional, cell-based; settings: MCF7, 48 h
HeLa = test: Cytotoxicity against human HeLa cells assessed as reduction in cell viability after 48 hrs by MTT assay; type: functional, cell-based
CCRF-CEM [2] = test: Cytotoxicity against human CCRF-CEM cells assessed as reduction in cell viability at 25 uM after 48 hrs by MTT assay relative to control; type: functional; settings: values are per cent of control
CCRF-CEM [3] = test: Cytotoxicity against human CCRF-CEM cells assessed as reduction in cell viability at 10 uM after 48 hrs by MTT assay relative to control; type: functional; settings: values are per cent of control
CCRF-CEM [4] = test: Cytotoxicity against human CCRF-CEM cells assessed as reduction in cell viability at 50 uM after 24 hrs by MTT assay relative to control; type: functional; settings: values are per cent of control
CCRF-CEM [5] = test: Cytotoxicity against human CCRF-CEM cells assessed as reduction in cell viability at 25 uM after 24 hrs by MTT assay relative to control; type: functional; settings: values are per cent of control
CCRF-CEM [6] = test: Cytotoxicity against human CCRF-CEM cells assessed as reduction in cell viability at 50 uM after 48 hrs by MTT assay relative to control; type: functional; settings: values are per cent of control
CCRF-CEM [7] = test: Cytotoxicity against human CCRF-CEM cells assessed as reduction in cell viability at 10 uM after 24 hrs by MTT assay relative to control; type: functional; settings: values are per cent of control
[8] = Half life in human liver microsome; type: ADME; settings: liver microsomes
HT-29 = test: Anticancer activity against human HT-29 cells after 48 hrs by MTT assay; type: functional, cell-based; settings: HT-29, 48 h
HepG2 [9] = test: Anticancer activity against human HepG2 cells after 48 hrs by MTT assay; type: functional, cell-based; settings: HepG2, 48 h
A549 = test: Anticancer activity against human A549 cells after 48 hrs by MTT assay; type: functional, cell-based; settings: A549, 48 h
MCF7 [10] = test: Anticancer activity against human MCF7 cells after 48 hrs by MTT assay; type: functional, cell-based; settings: MCF7, 48 h
MCF7 [11] = test: Growth inhibition of human MCF7 cells after 48 hrs by MTT assay; type: functional; settings: MCF7, 48 h
HUVEC = test: Cytotoxicity against HUVEC assessed as reduction in cell viability; type: cell-based; settings: Homo sapiens
HepG2 [12] = test: Anticancer activity against human HepG2 cells after 48 hrs by SRB assay; settings: HepG2, 48 h
U2OS [13] = test: Cytotoxicity against human U2OS cells assessed as reduction in cell viability by CellTiter 96 non-radioactive cell proliferation assay; type: functional, cell-based
U2OS [14] = test: Cytotoxicity against human U2OS cells assessed as reduction in cell viability at 20 uM by CellTiter 96 non-radioactive cell proliferation assay relative to control; type: functional

Compound: COc1cc(-c2nnnn2-c2ccc(-c3nc4ccccc4o3)cc2)cc(OC)c1OC
GI50 (HOP-62): 1.67 µM

Compound: O=[N+]([O-])c1cccc(-c2nnnn2-c2ccc(-c3nc4ccccc4o3)cc2)c1
GI50 (HOP-62): 2.9 µM

Compound: N[C@@H](Cc1ccc(N(CCCl)CCCl)cc1)C(=O)O
IC50 (MCF7 [1]): 61 µM
IC50 (HeLa): 88.9 µM

Compound: Brc1c(Br)c(Br)c2c(ncn2CCCn2nnnc2-c2ccccc2)c1Br
viability, % of control at 25 µM (CCRF-CEM [2]): 0%
viability, % of control at 10 µM (CCRF-CEM [3]): 57%
viability, % of control at 50 µM (CCRF-CEM [4]): 2%
viability, % of control at 25 µM (CCRF-CEM [5]): 4%
viability, % of control at 50 µM (CCRF-CEM [6]): 0%
viability, % of control at 10 µM (CCRF-CEM [7]): 67%

half-life [8]: 9.17 h
IC50 (HT-29): 5.97 µM
IC50 (HepG2 [9]): 5.72 µM
IC50 (A549): 10.6 µM
IC50 (MCF7 [10]): 9.88 µM
Compound: O=C(NC(=O)Nc1ccc(F)cc1F)Nc1ccc(Oc2ccnc(-n3cnnn3)c2)c(F)c1

GI50 (MCF7 [11]): 170 µM
Compound: COc1cccc2c1C(=O)c1c(O)c3c(c(O)c1C2=O)C[C@@](O)(C(=O)CO)C[C@@H]3O[C@H]1C[C@H](N)[C@H](O)[C@H](C)O1 [DOXORUBICIN HYDROCHLORIDE]
GI50 (HOP-62): 0.14 µM

Compound: Fc1ccc(-c2ccc3nc(/C=C/c4ccccc4)n4nnnc4c3c2)cc1
IC50 (MCF7 [1]): > 200 µM
IC50 (HeLa): > 200 µM

Compound: Fc1ccc(/C=C/c2nc3ccc(Br)cc3c3nnnn23)cc1
IC50 (MCF7 [1]): 21 µM
IC50 (HeLa): 22.4 µM

Compound: Clc1ccccc1-c1nnnn1CCCn1cnc2c(Br)c(Br)c(Br)c(Br)c21
viability, % of control at 25 µM (CCRF-CEM [2]): 1%
viability, % of control at 10 µM (CCRF-CEM [3]): 51%
viability, % of control at 50 µM (CCRF-CEM [4]): 2%
viability, % of control at 25 µM (CCRF-CEM [5]): 1%
viability, % of control at 50 µM (CCRF-CEM [6]): 0%
viability, % of control at 10 µM (CCRF-CEM [7]): 65%

Compound: Clc1ccccc1-c1nnn(CCCn2cnc3c(Br)c(Br)c(Br)c(Br)c32)n1
viability, % of control at 25 µM (CCRF-CEM [2]): 89%
viability, % of control at 10 µM (CCRF-CEM [3]): 104%
viability, % of control at 50 µM (CCRF-CEM [4]): 68%
viability, % of control at 25 µM (CCRF-CEM [5]): 96%
viability, % of control at 50 µM (CCRF-CEM [6]): 42%
viability, % of control at 10 µM (CCRF-CEM [7]): 102%

Compound: CCC(C)n1ncn(-c2ccc(N3CCN(c4ccc(OC[C@@H]5CO[C@@](Cn6nnnc6C)(c6ccc(Cl)cc6Cl)O5)cc4)CC3)cc2)c1=O (some centres undefined)
IC50 (HUVEC): 0.101 µM

Compound: Brc1c(Br)c(Br)c2c(ncn2CCCn2nnc(-c3ccccc3)n2)c1Br
viability, % of control at 25 µM (CCRF-CEM [2]): 64%
viability, % of control at 10 µM (CCRF-CEM [3]): 105%
viability, % of control at 50 µM (CCRF-CEM [4]): 4%
viability, % of control at 25 µM (CCRF-CEM [5]): 73%
viability, % of control at 50 µM (CCRF-CEM [6]): 0%
viability, % of control at 10 µM (CCRF-CEM [7]): 106%

IC50 (HepG2 [12]): 4000 µg/mL (≈ 7.36 mM)
Compound: COc1cccc2c1C(=O)c1c(O)c3c(c(O)c1C2=O)C[C@@](O)(C(=O)CO)C[C@@H]3O[C@H]1C[C@H](N)[C@H](O)[C@H](C)O1 [DOXORUBICIN]

Compound: CC(C)(C)n1nnc([C@H](CCCNC(=N)CBr)NC(=O)c2ccc(-c3ccccc3)cc2)n1
EC50 (U2OS [13]): 45 µM
Activity (U2OS [14]): 50%

Compound: CC(C)(C)n1nnc([C@H](CCCNC(=N)CCl)NC(=O)c2ccc(-c3ccccc3)cc2)n1
EC50 (U2OS [13]): 10 µM
Activity (U2OS [14]): 0%

Compound: CCOC(=O)Cn1nnnc1/C(=C/c1ccc(F)cc1)NC(=O)c1ccccc1
IC50 (MCF7 [1]): 47.9 µM

Compound: Brc1ccc2nc(/C=C/c3ccccc3)n3nnnc3c2c1
IC50 (MCF7 [1]): 9.6 µM
IC50 (HeLa): 7.3 µM

Compound: CCOC(=O)Cn1nnnc1/C(=C/c1ccc(Cl)cc1)NC(=O)c1ccccc1
IC50 (MCF7 [1]): 40.2 µM

Compound: CCC(C)n1ncn(-c2ccc(N3CCN(c4ccc(OC[C@@H]5CO[C@@](Cn6ncnn6)(c6ccc(Cl)cc6Cl)O5)cc4)CC3)cc2)c1=O (some centres undefined)
IC50 (HUVEC): 0.124 µM

Compound: Fc1ccc(C#Cc2ccc3nc(/C=C/c4ccccc4)n4nnnc4c3c2)cc1
IC50 (MCF7 [1]): > 200 µM
IC50 (HeLa): > 200 µM

Compound: O=[N+]([O-])c1ccc(-c2nnnn2-c2ccc(-c3nc4ccccc4o3)cc2)cc1
GI50 (HOP-62): 1.22 µM

Compound: CCC(C)n1ncn(-c2ccc(N3CCN(c4ccc(OC[C@@H]5CO[C@@](Cn6nnnc6-c6ccccc6)(c6ccc(Cl)cc6Cl)O5)cc4)CC3)cc2)c1=O (some centres undefined)
IC50 (HUVEC): 0.119 µM

IC50 (HT-29): 10.1 µM
IC50 (HepG2 [9]): 9.64 µM
IC50 (A549): 11.2 µM
IC50 (MCF7 [10]): 10.9 µM
Compound: CNC(=O)c1cc(Oc2ccc(NC(=O)Nc3ccc(Cl)c(C(F)(F)F)c3)cc2)ccn1 [SORAFENIB]

Compound: CCOC(=O)Cn1nnnc1/C(=C/c1ccc(OC)cc1)NC(=O)c1ccccc1
IC50 (MCF7 [1]): 44.6 µM

half-life [8]: 2.28 h
IC50 (HT-29): 20.6 µM
IC50 (HepG2 [9]): 0.55 µM
IC50 (A549): 6.25 µM
IC50 (MCF7 [10]): 7.76 µM
Compound: O=C(NC(=O)Nc1ccc(Oc2ccnc(-n3cnnn3)c2)c(F)c1)Nc1cccc(F)c1
